From patent publication US20250325567A1, “COADMINISTRATION OF POLYC[…] AMINE/AMIDE A[…] ENHANCE EFFICACY AGAINST PAIN” (University of Connecticut, priority 2024, published 2025)
Entries after “also recorded” stand apart in the source; their conditions may differ.

Assays:
F-11 (neuronal) cells = test: Dose dependent cytotoxicity towards F-11 neuronal cells; type: cell-based; settings: F11 cells, 24 hour incubation; for cytotoxicity: up to 20 μM
Experimental: FIG. 4 Dose dependent cytotoxicity of Dicannabidiol (diCBD) adipate and AM1241 towards F-11 (neuronal) cells after 24 hour incubation.

[1] = tested on: activated bone marrow macrophages; test: Anti-inflammatory response, pro-inflammatory marker gene expression; type: cell-based; settings: for IL-1B gene expression / IL-6 gene expression / Nos2 gene expression / TNF-α gene expression: 20 μM
From the text: FIG. 5 Anti-inflammatory efficacy of Dicannabidiol (diCBD) adipate and AM1241 towards inflamed bone marrow macrophages.
AM1241 was used as comparison due to its commercial availability.

[2] = Degradation study: thermal and UV light; type: physicochemical
Experimental: A degradation study was conducted in two parts: thermal degradation and UV light degradation. In the thermal degradation study, the Dicannabidiol adipate was heated to 175° C. in aerobic and anaerobic conditions and the changes were monitored by 1H NMR spectroscopy. In the UV light exposure study, a sample of Dicannabidiol adipate was kept under environmental conditions and UV light for several days and was constantly monitored by 1H NMR spectroscopy. From the results of the two experiments, it was concluded that the Dicannabidiol adipate is stable against the degradation caused from heat and UV exposure. […] This limits its misuse and abuse. Further, this indicates there will be no need to refrigerate the CBD-adipate dimer drug, and less issues, compared to CBD, with its shipping/handling.

[3] = Solubility study at different pHs; type: physicochemical; settings: 1 mg in 1 mL of water and ethanol, pH 1 to pH 12
Experimental: A solubility study was conducted on the Dicannabidiol adipate at different pHs. Twelve vials were prepared by placing 1 mg of the dimer in 1 mL of water and ethanol of different pH, from pH 1 to pH 12. […] The hypothesis for the dimer being soluble in basic water is due to the bonding of the base with the phenolic oxygen of the dimer, thus producing the salt and easily solubilizing in water. […] Adipic acid is widely used in food and medicinal applications and is considered compatible and safe in the human body.

rat osteoarthritis model = test: Rat osteoarthritis model (monoiodo acetate), mechanical allodynia; type: in vivo
Experimental: Briefly, baseline behavioral measurements were quantified prior to induction of osteoarthritis. Monoiodo acetate was used to induce osteoarthritis via intra-articular injection into the rear right knee joint followed 24 hours later by a single intra-articular injection of the designated treatment group (FIG. 9).

| Compound | cytotoxicity (F-11 (neuronal) cells) | IL-1B gene expression [1] | IL-6 gene expression [1] | Nos2 gene expression [1] | TNF-α gene expression [1] | stability against degradation caused from UV exposure ([2]; environmental conditions and UV light for several days, monitored by 1H NMR) | stability against degradation caused from heat ([2]; heated to 175° C., aerobic and anaerobic, monitored by 1H NMR) | degradation into psychoactive molecules such as THC ([2]; thermal) | cell viability (F-11 (neuronal) cells; 20 μM) | cytotoxicity (F-11 (neuronal) cells; listed as CBD-adipate dimer) | anti-inflammatory effect in vitro [1] | solubility in acidic conditions ([3]; acidic) | solubility in basic pH ([3]; basic) | pain level after the anesthetic action, versus initial pain (rat osteoarthritis model; after drug is no longer active) | pain free duration (rat osteoarthritis model; rat model of osteoarthritis) [days] |
| --- | --- | --- | --- | --- | --- | --- | --- | --- | --- | --- | --- | --- | --- | --- | --- |
| CN1CCCCC1Cn1cc(C(=O)c2cc([N+](=O)[O-])ccc2I)c2ccccc21 (centres unmarked) [AM1241, reference compound] | significantly increased cytotoxicity | significantly downregulate | significantly downregulate | significantly downregulate | Neither of these drugs showed any significant effect |  |  |  |  |  |  |  |  |  |  |
| C=C(C)[C@@H]1CCC(C)=C[C@H]1c1c(O)cc(CCCCC)cc1OC(=O)CCCCC(=O)Oc1cc(CCCCC)cc(O)c1[C@@H]1C=C(C)CC[C@H]1C(=C)C [Dicannabidiol adipate] | minimal cytotoxicity; also recorded: no cytotoxicity; also recorded: minimal toxicity | significantly downregulate; also recorded: significant reduction | significantly downregulate; also recorded: significant reduction | significantly downregulate; also recorded: significant reduction | Neither of these drugs showed any significant effect | stable | stable | does not degrade | above 80% | minimal dose dependent cell toxicity | potent anti-inflammatory effect | not soluble | solubilizes |  |  |
| CCCN1CCCC[C@H]1C(=O)Nc1c(C)cccc1C [Ropivacaine] |  |  |  |  |  |  |  |  |  |  |  |  |  | more pain | 2 |
